Test results from paper PMC6813295, “A tumour-selective cascade activatable self-detained system for drug delivery and cancer imaging” (Nature Communications, 2019).
Where a SMILES comes first, the peptide text is derived from it. The star is where a group is joined. X1 = CC1(C)C(=CC=C2CCCC(C=CC3=[N+](CCCCCC(=O)O)c4ccccc4C3(C)C)=C2*)N(CCCCCC(=O)O)c2ccccc21

Key:
H460 tumour-bearing mice = assay: Tumour penetration, distance from CD31-stained vessels in frozen tumour sections; type: in vivo, mouse
Procedure: Fig. 5 Tumour penetrations of TCASS. a 3D reconstruction PA images of tumour-bearing mice injected with molecule 1, SiO2 nanoparticles (SiO2 NPs) and liposome labelled by Cy. The degrees of penetration into the tumour were calculated. To better illustrate the penetration extent of molecule 1, SiO2 nanoparticles (SiO2 NPs) and liposome labelled by Cy, the tumour tissue was divided into five parts with identical radius intervals, which indicated the trend from the tumour edge to the interior (the red dashed circles show the tumour margin, and the grey dashed circles show the normalized distance from the tumour edge). b Quantification of the PA signal intensity. The PA intensity in the intratumoural distribution area between neighbouring polygons was normalized by the corresponding area. Data are presented as the mean ± s.d. (n = 3). ***p < 0.001, p values were performed with one-way ANOVA followed by post hoc Tukey’s test for the indicated comparison. c Frozen sections of tumour removed after treatment with molecule 1, SiO2 NPs and liposome labelled by Cy for 12 h. The tumour cell nucleus and vessels were stained with DAPI and FITC-tagged CD31 antibody, respectively. d Quantification of the penetrative distance of molecule 1, SiO2 NPs and liposome labelled by Cy from the tumour vessels. Data are presented as the mean ± s.d. (n = 8). ***p < 0.001, p values were performed with one-way ANOVA followed by post hoc Tukey’s test for the indicated comparison. Scale bar: a 2 mm; c 50 μm
All animal experiments were performed as previously described. H460 cells were also subcutaneously implanted on the right flank of xenografts mice. After the tumour had developed, Molecule 1 (14 mg/kg, n = 3), liposome and SiO2 nanoparticles labelled by Cy (the same molar amount of Cy, n = 3) dissolved into PBS was intravenously injected through tail vein of mice. The control group was PBS at the same conditions. […] In order to quantify the PA signal intensity, the intratumoral distribution area was normalized with the tumour regions.

[1] = test system: healthy female Balb/c nude mice; assay: Toxicology evaluation (blood biochemistry, haematology, histology); type: in vivo, mouse; settings: 14 mg/kg
Procedure: The healthy female Balb/c nude mice (6–8 weeks, n = 3) treated with molecule 1 was systematically investigated over 15 days. The mice were sacrificed after treatment with molecule 1 at a dose of 14 mg/kg on the 3rd, 7th and 15th day for blood collection. The blood biochemistry and haematology analyses were performed by Vital River Laboratory Animal Technology Co. Ltd. The histology evaluation was performed by Servicebio. All the toxicology evaluation was carried out in blind manner. […]
mg/kg, n=3) at 3, 7 and 15 d. The control group was healthy mice group without treatment. a, As major indicators of liver function, alanine aminotransferase (ALT), alkaline phosphatase (ALP) and aspartate aminotransferase (AST) levels were evaluated at different time point s. b, Total Protein (TP), albumin (ALB) and globulin (GLO) concentration and A/G (ALB/GLO) levels were evaluated at different time points. c, The creatinine (CRE) and blood urea nitrogen (BUN) levels, important indicators of kidney function, were evaluated at different time points. d, Time-course changes of haematology data, including i) white blood cells, ii) red blood cells, iii) haemoglobin, iv) mean corpuscular volume, v) mean corpuscular haemoglobin, vi) mean corpuscular haemoglobin concentration, vii) platelets and viii) haematocrit after treated with molecule 1 (14 mg/kg) treatment comparing with normal range (green backgrounds). Data are presented as mean ± s.d.
(n=3). e, Histology evaluation of the major organs (liver, spleen, kidney, heart and lung) were collected from the control group without treatment and molecule 1 treated (12 h post injection) group. Scale bars, 100 μm.

[2] = test system: human bladder tumour tissues; assay: Ex vivo NIR imaging of human intact bladder after intravesical instillation; settings: 70 mL of 50 μM in PBS pH 7.4 instilled, 37 °C, 1 h
Procedure: After obtaining approval from the institutional review board of the Fourth Hospital of Harbin Medical University, patients with urothelial carcinoma were scheduled for radical cystectomy and appropriate informed consent was obtained. Fresh intact bladder was obtained from the operating room immediately after radical cystectomy and irrigated three times for 5 min via an 18-French (Fr) urinary catheter with sterile saline, and 70 mL of molecule 1 in PBS (50 μM, pH 7.4) was instilled and incubated at 37 °C for 1 h. Then, the unbound molecule 1 was removed by irrigating with sterile saline three times for 5 min, the bladder was opened longitudinally on the anterior wall. Ex vivo fluorescent and white light imaging of the bladder cancer was performed using a near infrared imaging system. To explore the correlation between appearance of fluorescent signal and cancer lesions, standard pathological analysis of represented fluorescent spots were carried out after imaging.

Compound: CC[C@H](C)[C@H](NC(=O)[C@@H]1CCCN1C(=O)[C@@H](NC(=O)[C@H](C)N)C(C)C)C(=O)N[C@@H](C)C(=O)N[C@@H](CCC(N)=O)C(=O)N[C@@H](CCCCN)C(=O)N[C@@H](CC(=O)O)C(=O)N[C@@H](CCC(=O)O)C(=O)N[C@H](C(=O)N[C@@H](CC(=O)O)C(=O)N[C@@H](CCCCN)C(=O)N[C@@H](CC(C)C)C(=O)N[C@H](C(=O)N[C@@H](Cc1ccccc1)C(=O)N[C@@H](Cc1ccccc1)C(=O)N[C@@H](C)C(=O)N[C@@H](CCC(=O)O)C(=O)N[C@@H](CSC1=C(C=CC2=[N+](CCCCCC(=O)O)c3ccccc3C2(C)C)CCCC1=CC=C1N(CCCCCC(=O)O)c2ccccc2C1(C)C)C(=O)NCC(=O)O)C(C)C)C(C)C [molecule 1] (H-AVPIAQKDEVDKLVFFAEC(X1)G-OH)
- penetrative distance of signal from the tumour blood vessels (H460 tumour-bearing mice; 12 h post IV injection, 14 mg/kg or same molar amount of Cy, frozen sections, mean ± s.d. n = 8): approximately 67.4 ± 10.3 μm
- penetration distance of molecule 1 relative to SiO2 nanoparticles (H460 tumour-bearing mice; 12 h post injection): ~10 times
- penetration distance of molecule 1 relative to liposomes (H460 tumour-bearing mice; 12 h post injection): approximately 13 times
- histology evaluation of organs [1]: slightly enlarged splenic corpuscle and expanded germinal centres
- signs of acute toxicity within 15 days [1]: did not notice any obvious signs of acute toxicity
- creatinine (CRE) and blood urea nitrogen (BUN) levels ([1]; days 3, 7 and 15, n = 3): within the normal range
- liver function markers (ALT, AST, ALP, albumin concentration) ([1]; days 3, 7 and 15, n = 3): within reference normal ranges
- signal-to-noise ratio of the tumour area versus surrounding normal tissue [2]: up to 2.7 times
